Results published in publication PMC9313110, “Modulating the Fibrillization of Parathyroid-Hormone (PTH) Peptides: Azo-Switches as Reversible and Catalytic Entities” (Biomedicines, 2022).
Converted amounts (≈) assume the structure as drawn. Starred links: 1 amine or outer side, 2 acyl side, 3 side chain; linkers in the order of their positions; H or OH if unused. Non-standard residues stand in square brackets, D forms with d. Residues, ends and D or L forms follow the SMILES beside them. X3 = O=C(c1cccc(N=Nc2ccc(CN[*:1])cc2)c1)[*:2]

Experiments:
[1] = in the dark; ref [41],[42]; cited from earlier work
[2] = Maximum solubility in fibrillization buffer; type: physicochemical; conditions: 50 mM Na2HPO4 buffer (pH 7.4), UV-Vis absorption (ε = 49310 M-1cm-1 at 205 nm for PTH25-37, ε = 13000 M-1cm-1 at 327 nm for 3,4'-AMPB peptides)
Procedure: ThT-monitored fibrillization assays of artificial peptides and mixtures with PTH25–37 were investigated by fluorescence intensity measurements using thioflavin T (ThT) as fluorescent dye. Lyophilized peptides were dissolved in 50 mM Na2HPO4 buffer solution with a pH value of 7.4 in a concentration of 2 mg/mL and kept on ice for the next steps. The samples were centrifuged at 13,000× […] for 10 s and the concentrations were determined with a JASCO V-660 absorbance spectrometer (JASCO, Pfungstadt, Germany; PTH25–37 by absorbance at 205 nm and the molar extinction coefficient of 49,310 cm^−1M^−1; trans-AzoPTH25–37 by absorbance at 327 nm and the molar extinction coefficient of 13,000 cm^−1M^−1). Cis-AzoPTH25–37 was produced as described before. The solutions were centrifuged at 10,000 rpm for 1 h at 4 °C, the supernatant was transferred to another tube. The protein solutions were mixed in the desired ration and diluted with 50 mM Na2HPO4 buffer (pH 7.4) to obtain final concentrations of 0/100 μM PTH25–37, 50 μM ThT, and 0/10/20/50/100 μM AzoPTH25–37. For each sample, a total volume of 480 μL was prepared and 3 × 150 μL were transferred to a medium binding 96-well plate (Greiner Bio-One, Kremsmünster, Austria). The plate was sealed with a microplate cover. The fluorescence intensity was monitored at 37 °C using a BMG FLUOStar Omega multi-mode plate reader (BMG LABTECH, Ortenberg, Germany) using fluorescence excitation and emission wavelengths at 460 nm and 485 nm, respectively. One measurement cycle of 5 min consisted of double-orbital shaking for 150 s and incubating for 150 s.
2. Peptide Characterisation
Table S1: Primary sequence and solubility in 50 mM Na2PO4 buffer (pH 7.4) of peptides AzoPTH25-37 and SP1-
peptide primary sequencea solubility [μM]b
a Azo = 3,4’-AMPB; b maximum solubility was determined via UV-Vis absorption spectroscopy
2.2. HPLC- and MALDI-ToF-data
Figure S1: (A) HPLC-trace of AzoPTH25-37 (cis-isomer at 5.353, trans-isomer at 5.530). (B) MALDI-spectrum

[3] = type: physicochemical
From the text: We first studied the photophysical properties of the cis-trans-isomerization of AzoPTH25–37 (Figure 1b) by UV/Vis spectroscopy and HPLC analysis in pure water in order to minimize effects of a potential self-assembly and to quantify the generated amounts of the respective cis/trans-modified peptides before and after photoswitching. The UV/Vis spectra for the pure isomers (Figure S6) were separated from the spectra of trans-enriched AzoPTH25–37 in the thermodynamically stable state after synthesis and in the cis-enriched photostationary state (PSS, Figure 3) with Wolfram Mathematica 12.2. […] Both isomers display two isobestic points at 278 nm and 388 nm. They represent in the thermodynamically stable state a cis-trans ratio of 3:97. Under irradiation with UV light (340 nm), the cis-content could be increased of up to 82% in the cis-enriched PSS. Visible light (405 nm) yields 76% of the trans-isomer in the trans-enriched PSS via the back reaction. The difference of the trans-content between the trans-enriched PSS at 405 nm and the thermodynamically stable state arises from the overlapping of the n → π* transitions of both isomers at this wavelength. The rate of thermal cis-to-trans isomerization of AzoPTH25–37 follows first-order kinetics, and was determined by monitoring the increase of the π → π* absorption band at 327 nm (Figure S7) via time-dependent UV measurements.
2.3. […]

[4] = ThT-monitored fibrillization assay of the pure peptides; type: physicochemical; conditions: pure peptide 100 μM; 50 μM ThT; 50 mM Na2HPO4, pH 7.4; 37 °C; fluorescence ex 460 nm/em 485 nm; average of triplets
Procedure: ThT-monitored fibrillization assays of artificial peptides and mixtures with PTH25–37 were investigated by fluorescence intensity measurements using thioflavin T (ThT) as fluorescent dye. Lyophilized peptides were dissolved in 50 mM Na2HPO4 buffer solution with a pH value of 7.4 in a concentration of 2 mg/mL and kept on ice for the next steps. The samples were centrifuged at 13,000× […] for 10 s and the concentrations were determined with a JASCO V-660 absorbance spectrometer (JASCO, Pfungstadt, Germany; PTH25–37 by absorbance at 205 nm and the molar extinction coefficient of 49,310 cm^−1M^−1; trans-AzoPTH25–37 by absorbance at 327 nm and the molar extinction coefficient of 13,000 cm^−1M^−1). Cis-AzoPTH25–37 was produced as described before. […] The fluorescence intensity was monitored at 37 °C using a BMG FLUOStar Omega multi-mode plate reader (BMG LABTECH, Ortenberg, Germany) using fluorescence excitation and emission wavelengths at 460 nm and 485 nm, respectively. […]
In order to determine the kinetics of fibril formation of both modified AzoPTH25–37 isomers a thioflavin T (ThT)-monitored fibrillization assay was conducted and compared to PTH25–37. […] Causing a large red shift of fluorescence excitation of ThT, which in turn enables the selective excitation of amyloid fibril-bound ThT and therefore the in situ observation of fibril formation. […]

SMILES	solubility (maximum solubility) [2] [µM]	also measured
NCc1ccc(N=Nc2cccc(C(=O)O)c2)cc1 [3,4′-AMPB, 3-{[(4-aminomethyl)phenyl]diazenyl}benzoic acid]		half-life time of thermal back-isomerization of the photoswitch [1]: more than 20 h
CC(C)C[C@H](NC(=O)[C@H](C)NC(=O)[C@@H](NC(=O)[C@H](Cc1ccccc1)NC(=O)[C@H](CC(N)=O)NC(=O)[C@H](Cc1c[nH]cn1)NC(=O)c1cccc(N=Nc2ccc(CNC(=O)[C@H](CC(=O)O)NC(=O)[C@H](CCC(N)=O)NC(=O)[C@H](CC(C)C)NC(=O)[C@H](CCCCN)NC(=O)[C@H](CCCCN)NC(=O)[C@@H](N)CCCNC(=N)N)cc2)c1)C(C)C)C(=O)O [AzoPTH25–37] (H-RKKLQD[X3]HNFVAL-OH)	240 (≈ 409 µg/mL)	solubility (maximum solubility) ([2]; listed as AzoPTH25-37): 250 µM (≈ 426 µg/mL); photostability in the dark [3]: more than 20 h
CC(C)C[C@H](NC(=O)[C@H](C)NC(=O)[C@@H](NC(=O)[C@H](Cc1ccccc1)NC(=O)[C@H](CC(N)=O)NC(=O)[C@H](Cc1c[nH]cn1)NC(=O)[C@@H](NC(=O)[C@H](CC(=O)O)NC(=O)[C@H](CCC(N)=O)NC(=O)[C@H](CC(C)C)NC(=O)[C@H](CCCCN)NC(=O)[C@H](CCCCN)NC(=O)[C@@H](N)CCCNC(=N)N)C(C)C)C(C)C)C(=O)O [PTH25–37] (H-RKKLQDVHNFVAL-OH)	> 1000	tchar (time at which 50% of the maximum fluorescence was reached) [4]: 10.9 h; tlag (lag time, time before an increase in the fluorescence signal occurs) [4]: 7.2 h
CC(C)C[C@H](NC(=O)[C@H](C)NC(=O)[C@@H](NC(=O)[C@H](Cc1ccccc1)NC(=O)[C@H](CC(N)=O)NC(=O)[C@H](Cc1c[nH]cn1)NC(=O)[C@@H](NC(=O)c1cccc(N=Nc2ccc(CNC(=O)[C@H](CC(=O)O)NC(=O)[C@H](CCC(N)=O)NC(=O)[C@H](CC(C)C)NC(=O)[C@H](CCCCN)NC(=O)[C@H](CCCCN)NC(=O)[C@@H](N)CCCNC(=N)N)cc2)c1)C(C)C)C(C)C)C(=O)O [SP1] (H-RKKLQD[X3]VHNFVAL-OH)	60 (≈ 108 µg/mL)	
CC(C)C[C@H](NC(=O)[C@H](C)NC(=O)[C@@H](NC(=O)[C@H](Cc1ccccc1)NC(=O)[C@H](CC(N)=O)NC(=O)[C@H](Cc1c[nH]cn1)NC(=O)c1cccc(N=Nc2ccc(CNC(=O)[C@@H](NC(=O)[C@H](CC(=O)O)NC(=O)[C@H](CCC(N)=O)NC(=O)[C@H](CC(C)C)NC(=O)[C@H](CCCCN)NC(=O)[C@H](CCCCN)NC(=O)[C@@H](N)CCCNC(=N)N)C(C)C)cc2)c1)C(C)C)C(=O)O [SP2] (H-RKKLQDV[X3]HNFVAL-OH)	55 (≈ 99.3 µg/mL)	
CC(C)C[C@H](NC(=O)[C@H](C)NC(=O)[C@@H](NC(=O)[C@H](Cc1ccccc1)NC(=O)[C@H](CC(N)=O)NC(=O)[C@H](Cc1c[nH]cn1)NC(=O)[C@@H](NC(=O)c1cccc(N=Nc2ccc(CNC(=O)[C@H](CCC(N)=O)NC(=O)[C@H](CC(C)C)NC(=O)[C@H](CCCCN)NC(=O)[C@H](CCCCN)NC(=O)[C@@H](N)CCCNC(=N)N)cc2)c1)C(C)C)C(C)C)C(=O)O [SP3] (H-RKKLQ[X3]VHNFVAL-OH)	35 (≈ 59.2 µg/mL)	
CC(C)C[C@H](NC(=O)[C@H](C)NC(=O)[C@@H](NC(=O)[C@H](Cc1ccccc1)NC(=O)[C@H](CC(N)=O)NC(=O)[C@H](Cc1c[nH]cn1)NC(=O)c1cccc(N=Nc2ccc(CNC(=O)[C@H](CCC(N)=O)NC(=O)[C@H](CC(C)C)NC(=O)[C@H](CCCCN)NC(=O)[C@H](CCCCN)NC(=O)[C@@H](N)CCCNC(=N)N)cc2)c1)C(C)C)C(=O)O [SP4] (H-RKKLQ[X3]HNFVAL-OH)	25 (≈ 39.8 µg/mL)	
